Data taken from US20040077879A1, “Bis (amino acid) molecular scaffolds” (priority 2002, published 2004).
In brackets after ≈: the same amount, converted by molar mass. Read-outs that look alike come from different tables or passages of the source.

Assay: Solubility (dissolved, centrifuged, HPLC peak integrated relative to a tyrosine standard)
Assay type: physicochemical
Text: Pure three-mer scaffolds and five-mer scaffolds with extended rod-like structures in useful amounts have been synthesized. Three units of building block 1:pro4(2S4S) (Sequence 1) were assembled to form the molecular rod 19 using sequential solid phase synthesis on a 46 μmole scale (Scheme 4). The synthesis took place on an AM resin with a Rink Amide linker available from Novabiochem. […] After coupling three monomers, an Fmoc-Tyr(t-Bu)-OAt residue was coupled to increase the hydrophobicity of the final scaffold so that it would bind to a C18 column. After removal of the tyrosine Fmoc group, the amine terminus rapidly attacked the adjacent methyl ester to form a diketopiperazine […] (indicated in the sequence as cyclo-(Tyr)). The flexible oligomer 17 was cleaved from the resin and its mass was confirmed by reverse phase liquid chromatography with mass spectrometry (RP-LCMS). The carboxybenzyl (Cbz) groups were then removed by hydrogenolysis to obtain 18. The flexible oligomer 18 was converted into the rigidified scaffold 19 through the parallel formation of two diketopiperazine rings by exposure to 20% piperidine/DMF over 48 hours at 4° C.[25] […] Solubility was measured by dissolving the compound in 0.1% TFA, centrifuging it, injecting the solution into an HPLC and integrating the resulting peak relative to a tyrosine standard. […]

solubility (water, read-out: soluble in water) [µg/mL]	solubility (10% D2O/H2O, unpurified material, read-out: soluble in 10% D2O/H2O) [µg/mL]	Structure (SMILES)
> 5000	–	NC(=O)[C@@H]1C[C@@]2(CN1)NC(=O)[C@@H]1C[C@@]3(CN1C2=O)NC(=O)[C@@H]1C[C@@]2(CN1C3=O)NC(=O)[C@H](Cc1ccc(O)cc1)NC2=O [scaffold 19]
–	5000 (≈ 5.54 mM)	COC(=O)[C@]1(N)C[C@H]2C(=O)N[C@]3(C[C@H]4C(=O)N[C@]5(C[C@H]6C(=O)N[C@]7(C[C@H]8C(=O)N[C@@]9(CN[C@H](C(=O)N[C@@H](Cc%10ccc(O)cc%10)C(N)=O)C9)C(=O)N8C7)C(=O)N6C5)C(=O)N4C3)C(=O)N2C1 [scaffold 20]
